The results in this text go back to patent US20040102423A1, “Spironolactone and angiotensin II antagonist combination therapy for treatment of congestive heart failure” (G.D. Searle & Co., priority 1995, published 2004).

For assay [1], the target named is angiotensin II AT1 receptor. The experiment in a line: Assay A: Angiotensin II binding activity, rat uterine membrane preparation, 125I-AII displacement.
For another assay, the system named is rabbit aortic rings. The experiment in a line: Assay B: In vitro vascular smooth muscle response for AII (antagonist activity, pA2). It is filed as cell-based. The settings on record: Oryctolagus cuniculus, two values in a cell = two determinations. On the procedure:
Assay B: In Vitro Vascular Smooth Muscle-Response for AII
The compounds of the invention were tested for antagonist activity in rabbit aortic rings. Male New Zealand white rabbits (2-2.5 kg) were sacrificed using an overdose of pentobarbital and exsanguinated via the carotid arteries. The thoracic aorta was removed, cleaned of adherent fat and connective tissue and then cut into 3-mm ring segments. The endothelium was removed from the rings by gently sliding a rolled-up piece of filter paper into the vessel lumen. The rings were then mounted in a water-jacketed tissue bath, maintained at 37° C., between moveable and fixed ends of a stainless steel wire with the moveable end attached to an FT03 Grass transducer coupled to a Model 7D Grass Polygraph for recording isometric force responses. The bath was filled with 20 ml of oxygenated (95% oxygen/5% carbon dioxide) Krebs solution of the following composition (mM): 130 NaCl, 15 NaHCO3, […], 1.2 NaH2PO4, 1.2 MgSO4, 2.5 CaCl2, and 11.4 glucose. The preparations were equilibrated for one hour before approximately one gram of passive tension was placed on the rings. Angiotensin II concentration-response curves were then recorded (3×10^−10 to 1×10^−5 M). Each concentration of AII was allowed to elicit its maximal contraction, and then AII was washed out repeatedly for 30 minutes before rechallenging with a higher concentration of AII. Aorta rings were exposed to the test antagonist at 10^−5 M for 5 minutes before challenging with AII. Adjacent segments of the same aorta ring were used for all concentration-response curves in the presence or absence of the test antagonist. The effectiveness of the test compound was expressed in terms of pA2 values and were calculated according to H. O. Schild [Br. J. Pharmacol. Chemother., 2, 189-206 (1947)]. The pA2 value is […] which increases the EC50 value for AII by a factor of two. Each test antagonist was evaluated in aorta rings from two rabbits.

Take `CCCCc1nn(C(=O)CCC)c(=O)n1Cc1ccc(-c2ccccc2-c2nn[nH]n2)cc1` [Compound 106]: in assay [1], the IC50 (as a rule, the point on the concentration scale where inhibition reaches its midpoint) is 48 nM. The Kb (as a rule, the affinity of an antagonist, worked out from how it opposes an agonist) in the assay on rabbit aortic rings was 20 nM.
Take `CCCCc1nc(CCC2CCCCC2)nn1Cc1ccc(-c2ccccc2-c2nnn[nH]2)cc1` [Compound 54]: in assay [1], the IC50 was 3100 nM. Moreover, in the assay with rabbit aortic rings, the Kb is 955 nM.
In assay [1], `CCCCc1nc(Cl)nn1Cc1ccc(-c2ccccc2C(=O)O)cc1` [Compound 17] came in with an IC50 of 4 nM. The same molecule showed a Kb in the assay on rabbit aortic rings of 2.29 nM.
In assay [1], `CCCCn1nc(C(F)(F)CCC)nc1Cc1ccc(-c2ccccc2-c2nnn[nH]2)cc1` [Compound 141] came in with an IC50 of 0.11 nM. Also, in the assay on rabbit aortic rings, the Kb was 9.55 nM.
In assay [1], `CCCCCn1nc(CCCC)nc1Cc1ccc(-c2ccccc2-c2nnn[nH]2)nc1` [Compound 166] yielded an IC50 of 160 nM. Further, the Kb with rabbit aortic rings was 26.9 nM.
`CCCCc1nn(CC(=O)O)c(=O)n1Cc1ccc(-c2ccccc2-c2nn[nH]n2)cc1` [Compound 98] returned an IC50 in assay [1] of 22 nM. For the same molecule, the Kb in the assay on rabbit aortic rings is 7.94 nM.
`CCCCc1nc(Cc2ccc(-c3ccccc3C(=O)O)cc2)nn1CCCC` [Compound 138] yielded an IC50 in assay [1] of 130 nM. The Kb in the assay on rabbit aortic rings is 6.31 nM.
Regarding `CCCCc1nc(CCCC)n(Cc2ccc(-c3ccccc3C(=O)NNS(=O)(=O)C(F)(F)F)cc2)n1` [Compound 16], the IC50 in assay [1] worked out at 6.4 nM. The molecule also gave a Kb in the assay with rabbit aortic rings of 1.12 nM.
The matching figures for `CCCCc1nc(CNC(=O)OC(C)(C)C)n(Cc2ccc(-c3ccccc3-c3nnn[nH]3)cc2)n1` [Compound 45]: 4.4 nM and 3.89 nM.
Regarding `CCCCCn1nc(CCCC)n(Cc2ccc(-c3ccccc3-c3nn[nH]n3)cc2)c1=O` [Compound 101], the IC50 in assay [1] is 36 nM. The molecule also gave a Kb in the assay on rabbit aortic rings of 15.8 nM.
As for `CCCCc1nn(CCC2CCCCC2)c(=O)n1Cc1ccc(-c2ccccc2-c2nn[nH]n2)cc1` [Compound 100], the IC50 in assay [1] was 4.4 nM. In the assay with rabbit aortic rings, this molecule showed a Kb of 0.398 nM.
As for `CCCCn1nc(C(F)F)nc1Cc1ccc(-c2ccccc2-c2nnn[nH]2)nc1` [Compound 174], in assay [1], the IC50 is 180 nM. Moreover, the Kb with rabbit aortic rings is 51.3 nM.
Molecule `CCCCc1nc(C(F)(F)CCC)n(Cc2ccc(-c3ccccc3-c3nnn[nH]3)cc2)n1` [Compound 22] yielded an IC50 in assay [1] of 460 nM. In the assay on rabbit aortic rings, this molecule had a Kb of 251 nM.
The molecule `CCCCn1nc(C(F)(F)CC)nc1Cc1ccc(-c2ccccc2-c2nnn[nH]2)nc1` [Compound 179] yielded an IC50 in assay [1] of 310 nM. The molecule further had an antagonist equilibrium constant (Kb) in the assay on rabbit aortic rings of 214 nM.
Consider `CCCCc1nc(-c2ccccc2Cl)n(Cc2ccc(-c3ccccc3-c3nnn[nH]3)nc2)n1` [Compound 279], for which the IC50 in assay [1] came out at 270 nM. The molecule further gave a Kb in the assay on rabbit aortic rings of 8.71 nM.
`CCCCc1nc(C(F)(F)Cc2ccccc2)nn1Cc1ccc(-c2ccccc2-c2nnn[nH]2)cc1` [Compound 62] returned a 50% inhibitory concentration (IC50) in assay [1] of 26 nM. The same molecule had a Kb in the assay on rabbit aortic rings of 2.04 nM.
`CCCCc1ncn(Cc2ccc(-c3ccccc3-c3nnn[nH]3)cc2)n1` [Compound 65] displayed an IC50 in assay [1] of 23 nM. This molecule had an antagonist equilibrium constant (Kb) in the assay on rabbit aortic rings of 14.1 nM.
In the same order, the values of `CCCCc1nc(C(OC)OC)nn1Cc1ccc(-c2ccccc2-c2nnn[nH]2)cc1` [Compound 35] are 41 nM and 56.2 nM.
In the same order, the values of `CCCCc1nc(C(F)F)nn1Cc1ccc(-c2ccccc2-c2nnn[nH]2)cc1` [Compound 58] are 140 nM and 355 nM.
With `CCCCc1nn(CCC(C)CC(C)(C)C)c(=O)n1Cc1ccc(-c2ccccc2-c2nn[nH]n2)cc1` (stereo not shown) [Compound 103], the IC50 in assay [1] was found to be 12 nM. The Kb with rabbit aortic rings is 10 nM.
The molecule `CCCCc1cn(CCCC)c(=O)n1Cc1ccc(-c2ncccc2-c2nnn[nH]2)cc1` [Compound 235] yielded an IC50 in assay [1] of 34 nM. In the assay with rabbit aortic rings, this molecule had a Kb of 72.4 nM.
Take `CCCCCCn1nc(CCCC)n(Cc2ccc(-c3ccccc3-c3nn[nH]n3)cc2)c1=O` [Compound 96]: in assay [1], the IC50 was determined as 21 nM. Moreover, the Kb with rabbit aortic rings was 10 nM.
As for `CCCCc1nn(CCCC)c(=O)n1Cc1ccc(-c2ccccc2-c2nnn[nH]2)cc1` [Compound 90], in assay [1], the IC50 came out at 5.6 nM. The molecule also gave a Kb with rabbit aortic rings of 1 nM.
In assay [1], `CCCCc1nc(CCCC)n(Cc2ccc(-c3ccccc3C(=O)NN)cc2)n1` [Compound 15] yielded an IC50 of 16 nM. Moreover, the Kb with rabbit aortic rings was 4.9 nM.
Consider `CCCCc1nn(C(Cc2ccccc2)C(=O)c2ccccc2)c(=O)n1Cc1ccc(-c2ccccc2-c2nn[nH]n2)cc1` (stereo not shown) [Compound 105], for which the concentration for half-maximal inhibition (IC50) in assay [1] was 290 nM. The Kb in the assay with rabbit aortic rings is 251 nM.
In assay [1], `CCCCc1nc(CCC2CCCCC2)n(Cc2ccc(-c3ccccc3-c3nnn[nH]3)cc2)n1` [Compound 53] returned an IC50 of 65 nM. Moreover, the antagonist dissociation constant (Kb) in the assay with rabbit aortic rings is 27.5 nM.
The matching figures for `CCCCc1nc(CCCO)n(Cc2ccc(-c3ccccc3-c3nnn[nH]3)cc2)n1` [Compound 57]: 2300 nM and 1000 nM.
Molecule `CCCCc1nc(CC(OCC)OCC)nn1Cc1ccc(-c2ccccc2-c2nnn[nH]2)cc1` [Compound 49] returned an IC50 in assay [1] of 120 nM. Besides, the Kb in the assay with rabbit aortic rings is 87.1 nM.
In assay [1], `CCCCCc1nc(CCCCC)n(Cc2ccc(-c3ccccc3-c3nnn[nH]3)cc2)n1` [Compound 24] showed an IC50 of 10 nM. This molecule also showed a Kb in the assay on rabbit aortic rings of 27.5 nM.
In assay [1], `CCCCc1nc(CC2CCCCC2)nn1Cc1ccc(-c2ccccc2-c2nnn[nH]2)cc1` [Compound 85] registered an IC50 of 8.7 nM. In the assay on rabbit aortic rings, this molecule gave a Kb of 1.26 nM.
Molecule `CCCCc1nc(CC)nn1Cc1ccc(-c2ccccc2C(=O)O)cc1` [Compound 86] showed an IC50 in assay [1] of 9 nM. In addition, the Kb in the assay with rabbit aortic rings is 15.8 nM.
In assay [1], `CCCCc1cn(CCCC)c(=O)n1Cc1ccc(-c2ccccc2-c2nnn[nH]2)cc1` [Compound 143] displayed an IC50 of 0.052 nM. The Kb with rabbit aortic rings is 20 nM.
In the same order, the values of `CCCCc1cn(-c2c(C)cccc2C)c(=O)n1Cc1ccc(-c2ccccc2-c2nnn[nH]2)nc1` [Compound 233] are 84 nM and 3.09 nM.
With `CCCCc1nn(Cc2ccc3ccccc3c2)c(=O)n1Cc1ccc(-c2ccccc2-c2nn[nH]n2)cc1` [Compound 110], the IC50 in assay [1] worked out at 590 nM. For the same molecule, in the assay on rabbit aortic rings, the Kb was 398 nM.
In the same order, the values of `CCCCc1nc(CCC(=O)O)nn1Cc1ccc(-c2ccccc2-c2nnn[nH]2)cc1` [Compound 74] are 6.5 nM and 2.75 nM.
In assay [1], `CCCCc1cn(CCc2ccccc2)c(=O)n1Cc1ccc(-c2ccccc2-c2nnn[nH]2)cc1` [Compound 144] gave an IC50 of 0.088 nM. Also, the Kb with rabbit aortic rings is 20 nM.
The matching figures for `CCCCCCCCc1nc(CCCC)nn1Cc1ccc(-c2ccccc2-c2nnn[nH]2)cc1` [Compound 39]: 10 nM and 13.2 nM.
In assay [1], `CCCCc1cn(-c2ccccc2Cl)c(=O)n1Cc1ccc(-c2ccccc2-c2nnn[nH]2)nc1` [Compound 227] gave an IC50 of 89 nM. For the same molecule, the Kb in the assay with rabbit aortic rings is 28.2 nM.
`CCCCc1nn(C(CC(=O)OCC)C(=O)c2ccccc2)c(=O)n1Cc1ccc(-c2ccccc2-c2nn[nH]n2)cc1` (stereo not shown) [Compound 112] had an IC50 in assay [1] of 2000 nM. The Kb in the assay on rabbit aortic rings is 6310 nM.
In assay [1], `CCCCc1nc(CC23CC4CC(CC(C4)C2)C3)nn1Cc1ccc(-c2ccccc2-c2nnn[nH]2)cc1` [Compound 73] gave an IC50 of 790 nM. In addition, in the assay on rabbit aortic rings, the Kb was 22.4 nM.
The molecule `CCCCc1nc(Cl)n(Cc2ccc(-c3ccccc3C(=O)O)cc2)n1` [Compound 19] registered an IC50 in assay [1] of 12000 nM. For the same molecule, the Kb with rabbit aortic rings is 6610 nM.
Molecule `CCCCc1nc(Cc2ccc(-c3ccccc3-c3nnn[nH]3)nc2)n(CC(CC)CC)n1` [Compound 168] yielded an IC50 in assay [1] of 420 nM. In the assay on rabbit aortic rings, the Kb is 20.4 nM.
In assay [1], `CCCCc1nc(CC23CC4CC(CC(C4)C2)C3)n(Cc2ccc(-c3ccccc3-c3nnn[nH]3)cc2)n1` [Compound 72] yielded an IC50 of 83 nM. In addition, in the assay with rabbit aortic rings, the Kb is 776 nM.
The molecule `CCCCc1nn(CCCc2ccccc2)c(=O)n1Cc1ccc(-c2ccccc2-c2nn[nH]n2)cc1` [Compound 92] showed an IC50 in assay [1] of 35 nM. This molecule had a Kb with rabbit aortic rings of 12.6 nM.
`CCCCc1nc(C2CCCCC2)n(Cc2ccc(-c3ccccc3-c3nnn[nH]3)cc2)n1` [Compound 76] returned an IC50 in assay [1] of 5400 nM. Further, the Kb in the assay with rabbit aortic rings is 3020 nM.
The molecule `CCCCc1cn(-c2c(C(C)C)cccc2C(C)C)c(=O)n1Cc1ccc(-c2ccccc2-c2nnn[nH]2)nc1` [Compound 246] had an IC50 in assay [1] of 72 nM. The molecule also showed a Kb in the assay with rabbit aortic rings of 34.7 nM.
`CCCCc1nc(CC2CCCCC2)n(Cc2ccc(-c3ccccc3-c3nnn[nH]3)cc2)n1` [Compound 84] had an IC50 in assay [1] of 16 nM. For the same molecule, in the assay with rabbit aortic rings, the Kb was 79.4 nM.
In the case of `CCCCn1nc(C(C#N)CCC)n(Cc2ccc(-c3ccccc3-c3nn[nH]n3)cc2)c1=O` (stereo not shown) [Compound 117], in assay [1], the IC50 amounted to 170 nM. This molecule showed an antagonist equilibrium constant (Kb) with rabbit aortic rings of 316 nM.
Regarding `CCCCc1nc(C(=O)O)nn1Cc1ccc(-c2ccccc2-c2nnn[nH]2)cc1` [Compound 63], the IC50 in assay [1] was 61 nM. In the assay on rabbit aortic rings, this molecule showed a Kb of 17 nM.
In assay [1], `CCCCc1nc(CCCC)n(Cc2ccc(-c3ccccc3-c3nnn[nH]3)cc2)n1` [Compound 14] came in with an IC50 of 7.2 nM. Besides, in the assay on rabbit aortic rings, the Kb is 1.45 nM.
